Some test systems named below: SF-295 CNS; MOLT-4 leukemia; UO-31 renal; NCI-H522 lung; LOX IMVI melanoma; KM12 colon; UACC-62 melanoma; K-562 leukemia; SK-OV-3 ovarian; ACHN renal.
Holding throughout (experiment): growth of human tumour cells (NCI), 48 h

8 compounds from PubChem BioAssay (NCI) can be followed below.

“And” between values parts separate entries of the source, which are not always exact repeats. Equal values may be shown once.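 Method: 48-hour compound exposure of cells in 96-well plates, five concentrations, linear interpolation of endpoints. Abbreviation: GI50, concentration required for 50% inhibition of growth. Definition used: TGI = concentration required for complete inhibition of growth.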

`COc1ccccc1CNCCCN1C(=O)c2ccc3c4c(ccc(c24)C1=O)C(=O)N(CCCNCCCCNCCCCN)C3=O`: the GI50 with SF-295 CNS was 2.63 µM; in the assay on MOLT-4 leukemia, 3.23 µM; with UO-31 renal it was 3.44 µM; in the assay with NCI-H522 lung, 1.62 µM; in the assay on LOX IMVI melanoma it was 0.941 µM; with KM12 colon, 2.42 µM. For the same compound, the GI50 in the assay with UACC-62 melanoma was 1.53 µM; with K-562 leukemia, 1.02 µM; with SK-OV-3 ovarian, 2.82 µM; in the assay on ACHN renal, 2.82 µM. For the same compound, the TGI was 11 µM in the assay on SF-295 CNS; 19.5 µM with MOLT-4 leukemia; greater than 67.3 µM in the assay with UO-31 renal; 6.07 µM with NCI-H522 lung; 4.76 µM in the assay on LOX IMVI melanoma; 6.91 µM with KM12 colon. Further, the TGI is 3.66 µM in the assay with UACC-62 melanoma, greater than 36.9 µM with K-562 leukemia, 14.1 µM in the assay on SK-OV-3 ovarian and greater than 33.9 µM with ACHN renal.
For `Cn1cc(C2=C(c3c4n(c5ccccc35)CC(CN)C4)C(=O)NC2=O)c2ccccc21` (stereo not drawn), the GI50 was 3.54 µM in the assay with SF-295 CNS; 3.4 µM with MOLT-4 leukemia; 2.83 µM in the assay with UO-31 renal; 3 µM with NCI-H522 lung; 2.98 µM with LOX IMVI melanoma; 3.46 µM with KM12 colon. Besides, the GI50 is 3.3 µM with UACC-62 melanoma, 1.64 µM with K-562 leukemia, 1.93 µM with SK-OV-3 ovarian and 3.16 µM in the assay with ACHN renal. In addition, the TGI worked out at 8.56 µM in the assay on SF-295 CNS; 15 µM with MOLT-4 leukemia; 8.27 µM in the assay with UO-31 renal; 6.63 µM in the assay with NCI-H522 lung; 6.92 µM in the assay with LOX IMVI melanoma; 9.22 µM with KM12 colon. The TGI with UACC-62 melanoma came to 6.76 µM; with K-562 leukemia it was 17.9 µM; with SK-OV-3 ovarian, 14.7 µM; in the assay on ACHN renal it was 12.3 µM.
With `CCCN(CCC)c1ccc(C=O)cc1`, the GI50 in the assay on SF-295 CNS is 34.2 µM; in the assay with MOLT-4 leukemia, 29.8 µM; in the assay on UO-31 renal, 36.2 µM; in the assay on NCI-H522 lung, 28 µM; in the assay with LOX IMVI melanoma, 59.6 µM; in the assay on KM12 colon, greater than 70.8 µM. The GI50 was 42.8 µM in the assay on UACC-62 melanoma, 25.7 µM in the assay with K-562 leukemia, greater than 100 µM in the assay with SK-OV-3 ovarian and 77.7 µM in the assay with ACHN renal. Besides, the TGI with SF-295 CNS, in the assay with MOLT-4 leukemia, in the assay on UO-31 renal, in the assay with NCI-H522 lung, in the assay with LOX IMVI melanoma and in the assay on KM12 colon was greater than 100 µM each time. Moreover, the TGI with UACC-62 melanoma, in the assay with K-562 leukemia, in the assay with SK-OV-3 ovarian and in the assay with ACHN renal was greater than 100 µM each time.
For `C=C1C(=O)O[C@H]2[C@H]1CC/C(COC(=O)/C=C\C(=O)NCc1ccc(Cn3c(=O)sn(-c4ccc(OC)cc4)c3=O)cc1)=C\CC[C@@]1(C)O[C@@H]21`, the GI50 is 3.84 µM with SF-295 CNS; 0.584 µM in the assay with MOLT-4 leukemia; 0.408 µM in the assay on UO-31 renal; 0.648 µM with NCI-H522 lung; 0.36 µM in the assay on LOX IMVI melanoma; 0.884 µM with KM12 colon. The GI50 with UACC-62 melanoma was 0.7 µM; in the assay with K-562 leukemia, 0.603 µM; with SK-OV-3 ovarian, 4.77 µM; with ACHN renal it was 0.46 µM. Further, the TGI in the assay with SF-295 CNS turned out to be 10.1 µM; in the assay with MOLT-4 leukemia, 9.78 µM; with UO-31 renal, 1.06 µM; in the assay on NCI-H522 lung, 1.56 µM; in the assay with LOX IMVI melanoma, 1.09 µM; in the assay with KM12 colon, 1.81 µM. Further, the TGI is 1.41 µM with UACC-62 melanoma, 50 µM with K-562 leukemia, 11.6 µM in the assay with SK-OV-3 ovarian and 1.07 µM with ACHN renal.
In the case of `COc1ccc2nc3cccc([N+](=O)[O-])c3c(NCCN(CCO)CCO)c2c1`, the GI50 in the assay with SF-295 CNS is 0.0304 µM; in the assay on MOLT-4 leukemia, 0.0161 µM; in the assay with UO-31 renal, 0.0539 µM; in the assay on LOX IMVI melanoma, 0.0379 µM; in the assay on KM12 colon, 0.0367 µM; in the assay with UACC-62 melanoma, 0.0311 µM. Also, the figures for the GI50 with K-562 leukemia, in the assay on SK-OV-3 ovarian and with ACHN renal were 0.013 µM, 0.106 µM and 0.0142 µM, respectively. Besides, the TGI stood at 0.337 µM with SF-295 CNS; 0.136 µM in the assay on MOLT-4 leukemia; 0.184 µM with UO-31 renal; 0.018 µM with NCI-H522 lung; 0.18 µM with LOX IMVI melanoma; 0.202 µM in the assay on KM12 colon. For the same compound, the TGI in the assay on UACC-62 melanoma amounted to 0.109 µM; with K-562 leukemia, 0.0487 µM; in the assay with SK-OV-3 ovarian, 0.771 µM; in the assay on ACHN renal, 0.0495 µM.
For `O=C1C(c2ccc([N+](=O)[O-])cc2)=[N+]([O-])c2ccccc21`, the TGI in the assay with SF-295 CNS is greater than 100 µM; in the assay with MOLT-4 leukemia, greater than 100 µM; in the assay with UO-31 renal it was 67 µM; with NCI-H522 lung, 20.3 µM; in the assay on LOX IMVI melanoma, 60.9 µM; in the assay with KM12 colon it was greater than 100 µM. Moreover, the TGI with UACC-62 melanoma is 40.5 µM; in the assay with K-562 leukemia it was greater than 100 µM; with SK-OV-3 ovarian, greater than 100 µM; in the assay on ACHN renal, greater than 100 µM.
`O=C(CCc1nnc2s/c(=C\c3ccc4c(c3)OCO4)c(=O)n12)Nc1cc(Cl)ccc1Cl`: the TGI in the assay on SF-295 CNS, in the assay on MOLT-4 leukemia, with UO-31 renal, with NCI-H522 lung, in the assay on LOX IMVI melanoma and in the assay with KM12 colon was greater than 100 µM each time. Further, the TGI in the assay on UACC-62 melanoma, with K-562 leukemia, in the assay with SK-OV-3 ovarian and with ACHN renal was greater than 100 µM each time.
On to `CS(=O)(=O)N1CCN(Cc2cc3nc(-c4cccc5[nH]ncc45)nc(N4CCOCC4)c3s2)CC1`, for which the GI50 in the assay with SF-295 CNS was 0.262 µM and 0.318 µM; with MOLT-4 leukemia, 0.315 µM and 0.302 µM; in the assay on UO-31 renal, 0.174 µM and 0.105 µM; in the assay with NCI-H522 lung, 0.602 µM and 0.37 µM; with LOX IMVI melanoma it was 0.456 µM and 0.32 µM; with KM12 colon it was 1.36 µM and 0.754 µM. The GI50 in the assay with K-562 leukemia was 3.91 µM and > 2.17 µM; in the assay with SK-OV-3 ovarian it was 0.243 µM and 0.145 µM; in the assay with ACHN renal it was 0.382 µM and 0.319 µM. Further, the TGI was 3.11 µM and 3.62 µM in the assay on SF-295 CNS; greater than 100 µM with MOLT-4 leukemia; greater than 4.03 µM in the assay on UO-31 renal; greater than 28 µM in the assay with NCI-H522 lung; greater than 100 µM in the assay with LOX IMVI melanoma; greater than 100 µM with KM12 colon. The TGI with UACC-62 melanoma is 0.244 µM; in the assay with K-562 leukemia it was greater than 100 µM; in the assay on SK-OV-3 ovarian, 3.84 µM and 1.68 µM; with ACHN renal, greater than 100 µM.
